# Assay results published in patent US10414740B2, “Glutaminase inhibitors and method of use” (Agios Pharmaceuticals, Inc., priority 2012, dated 2019).
# Target: T1, glutaminase (GAC) (Homo sapiens, UniProt O94925)
# T1 sequence (O94925 55-598 isoform O94925-3 limits assumed): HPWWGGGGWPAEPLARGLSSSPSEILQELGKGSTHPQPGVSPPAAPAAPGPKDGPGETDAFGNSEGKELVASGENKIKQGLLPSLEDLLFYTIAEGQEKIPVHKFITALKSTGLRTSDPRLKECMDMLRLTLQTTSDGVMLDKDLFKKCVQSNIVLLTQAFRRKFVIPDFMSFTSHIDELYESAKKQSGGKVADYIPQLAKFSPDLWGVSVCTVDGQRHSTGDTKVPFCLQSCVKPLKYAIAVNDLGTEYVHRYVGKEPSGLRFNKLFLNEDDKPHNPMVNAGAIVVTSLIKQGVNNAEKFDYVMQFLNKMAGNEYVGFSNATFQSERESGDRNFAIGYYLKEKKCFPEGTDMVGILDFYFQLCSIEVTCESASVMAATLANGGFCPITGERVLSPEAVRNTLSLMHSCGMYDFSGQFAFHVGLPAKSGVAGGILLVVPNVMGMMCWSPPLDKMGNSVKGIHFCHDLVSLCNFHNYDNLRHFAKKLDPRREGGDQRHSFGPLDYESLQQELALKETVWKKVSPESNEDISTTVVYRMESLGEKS
# Test: glutaminase coupled endpoint assay (Example A)
# Format: biochemical
# Details: inhibition of glutaminase; IC50 tested in an assay of Example A or Example B
# Experimental: In this example, the enzymatic activity of glutaminase is measured through a coupled endpoint assay. […] The glutamate produced is converted to 2-OG by a kinetic excess of glutamate dehydrogenase. […] However, a kinetic excess of the third coupling enzyme, diaphorase, recycles NAD from NADH to keep the NAD concentration constant during the timecourse of the assay. Diaphorase, also supplied in kinetic excess, oxidizes NADH produced by GDH back to NAD with the concomitant reduction of rezasurin to the highly fluorescent resorufin. […] A reduction in the signal indicates inhibition of some component of the coupled enzyme system. Prospective hits are counterscreened against GDH/diaphorase alone to remove hits to the coupling enzyme system in a second assay.
# 2. […] Add 1 μl a compound in 100% DMSO 2. Add 40 μl of Enzyme Mix and incubate for 60 minute at room temperature 3. Add 10 μl of Substrate Mix to start reaction 4.
row,Structure (SMILES),IC50
1,"COc1ccc2c(c1)C(CC(=O)Nc1nnc(CCCCc3nnc(NC(=O)CC4CC(=O)c5ccc(OC)cc54)s3)s1)CC2=O (centres unmarked) [Compound 43, N,N′-(5,5′-(butane-1,4-diyl)bis(1,3,4-thiadiazole-5,2-diyl))bis(2-(6-methoxy-3-oxo-2,3-dihydro-1H-inden-1-yl)acetamide)]",100 to 500 nM
2,O=C(Cc1ccccc1)Nc1nnc(CC[S+]([O-])CCC(=O)Nc2nnc(Cc3ccccc3)s2)s1 (centres unmarked) [Compound 24],1000 to 10000 nM
3,"Cc1cc(CC(=O)Nc2nnc(CCCCc3nnc(NC(=O)Cc4cc(C)no4)s3)s2)on1 [Compound 42, N,N′-(5,5′-(butane-1,4-diyl)bis(1,3,4-thiadiazole-5,2-diyl))bis(2-(3-methylisoxazol-5-yl)acetamide)]",100 to 500 nM
4,"O=C(Cc1ccc(O)cc1)Nc1nnc(CCCCc2nnc(NC(=O)Cc3ccc(O)cc3)s2)s1 [Compound 38, N,N′-(5,5′-(butane-1,4-diyl)bis(1,3,4-thiadiazole-5,2-diyl))bis(2-(4-hydroxyphenyl)acetamide)]",100 to 500 nM
5,"O=C(Cc1ccccc1)Nc1nnc(CCCCCCc2nnc(NC(=O)Cc3ccccc3)s2)s1 [Compound 12, N,N′-(5,5′-(hexane-1,6-diyl)bis(1,3,4-thiadiazole-5,2-diyl))bis(2-phenylacetamide)]",1000 to 10000 nM
6,"CN(C)c1ccc(CC(=O)Nc2nnc(CCCCc3nnc(NC(=O)Cc4ccc(N(C)C)cc4)s3)s2)cc1 [Compound 107, N,N′-(5,5′-(butane-1,4-diyl)bis(1,3,4-thiadiazole-5,2-diyl))bis(2-(4-(dimethylamino)phenyl)acetamide)]",100 to 500 nM
7,"O=C(Cc1ccc(Cl)nc1)Nc1nnc(CCCCc2nnc(NC(=O)Cc3ccc(Cl)nc3)s2)s1 [Compound 78, N,N′-(5,5′-(butane-1,4-diyl)bis(1,3,4-thiadiazole-5,2-diyl))bis(2-(6-chloropyridin-3-yl)acetamide)]",500 to 1000 nM
8,"CC(C)(C)OC(=O)Nc1nnc(CCS(=O)(=O)CCc2nnc(NC(=O)OC(C)(C)C)s2)s1 [Compound 15, Di-tert-butyl (5,5′-(sulfonylbis(ethane-2,1-diyl))bis(1,3,4-thiadiazole-5,2-diyl))dicarbamate]",100 to 500 nM
9,"O=C(Cc1cccc2ccccc12)Nc1nnc(CCCCc2nnc(NC(=O)Cc3cccc4ccccc34)s2)s1 [Compound 51, N,N′-(5,5′-(butane-1,4-diyl)bis(1,3,4-thiadiazole-5,2-diyl))bis(2-(naphthalen-1-yl)acetamide)]",100 to 500 nM
10,"O=C(C/C=C/c1ccccc1)Nc1nnc(CCCCc2nnc(NC(=O)C/C=C/c3ccccc3)s2)s1 [Compound 81, (3E,3′E)-N,N′-(5,5′-(butane-1,4-diyl)bis(1,3,4-thiadiazole-5,2-diyl))bis(4-phenylbut-3-enamide)]",100 to 500 nM
11,"O=C(Cc1ccc2c(c1)OCO2)Nc1nnc(CCCCc2nnc(NC(=O)Cc3ccc4c(c3)OCO4)s2)s1 [Compound 55, N,N′-(5,5′-(butane-1,4-diyl)bis(1,3,4-thiadiazole-5,2-diyl))bis(2-(benzo[d][1,3]dioxol-5-yl)acetamide)]",< 100 nM
12,O=C(Cc1ccccn1)Nc1nnc(CCSCc2nnc(NC(=O)Cc3ccccn3)s2)s1 [Compound 57],< 100 nM
13,"O=C(Cc1noc2ccccc12)Nc1nnc(CCCCc2nnc(NC(=O)Cc3noc4ccccc34)s2)s1 [Compound 60, N,N′-(5,5′-(butane-1,4-diyl)bis(1,3,4-thiadiazole-5,2-diyl))bis(2-(benzo[d]isoxazol-3-yl)acetamide)]",< 100 nM
14,"O=C(Cc1cccc2[nH]ccc12)Nc1nnc(CCCCc2nnc(NC(=O)Cc3cccc4[nH]ccc34)s2)s1 [Compound 123, N,N′-(5,5′-(butane-1,4-diyl)bis(1,3,4-thiadiazole-5,2-diyl))bis(2-(1H-indol-4-yl)acetamide)]",< 100 nM
15,"COc1cc(CCC(=O)Nc2nnc(CCCCc3nnc(NC(=O)CCc4cc(OC)c(OC)c(OC)c4)s3)s2)cc(OC)c1OC [Compound 101, N,N′-(5,5′-(butane-1,4-diyl)bis(1,3,4-thiadiazole-5,2-diyl))bis(3-(3,4,5-trimethoxyphenyl)propanamide)]",500 to 1000 nM
16,"CC(C)CC(=O)Nc1nnc(CCCCc2nnc(NC(=O)CC(C)C)s2)s1 [Compound 115, N,N′-(5,5′-(butane-1,4-diyl)bis(1,3,4-thiadiazole-5,2-diyl))bis(3-methylbutanamide)]",500 to 1000 nM
17,"O=C(Cc1ccc(Cl)cc1)Nc1nnc(CCCCc2nnc(NC(=O)Cc3ccc(Cl)cc3)s2)s1 [Compound 113, N,N′-(5,5′-(butane-1,4-diyl)bis(1,3,4-thiadiazole-5,2-diyl))bis(2-(4-chlorophenyl)acetamide)]",100 to 500 nM
18,"O=C(CC1CCCCC1)Nc1nnc(CCCCc2nnc(NC(=O)CC3CCCCC3)s2)s1 [Compound 121, N,N′-(5,5′-(butane-1,4-diyl)bis(1,3,4-thiadiazole-5,2-diyl))bis(2-cyclohexylacetamide)]",100 to 500 nM

row,Structure (SMILES),IC50
1,"O=C(CCc1ccccc1)Nc1nnc(CCCCCc2nnc(NC(=O)CCc3ccccc3)s2)s1 [Compound 20, N,N′-(5,5′-(pentane-1,5-diyl)bis(1,3,4-thiadiazole-5,2-diyl))bis(3-phenylpropanamide)]",1000 to 10000 nM
2,"CC(C)OC(=O)Nc1nnc(CCS(=O)(=O)CCc2nnc(NC(=O)OC(C)C)s2)s1 [Compound 23, Diisopropyl (5,5′-(sulfonylbis(ethane-2,1-diyl))bis(1,3,4-thiadiazole-5,2-diyl))dicarbamate]",500 to 1000 nM
3,"O=C(Cc1c[nH]c2ccccc12)Nc1nnc(CCCCc2nnc(NC(=O)Cc3c[nH]c4ccccc34)s2)s1 [Compound 87, N,N′-(5,5′-(butane-1,4-diyl)bis(1,3,4-thiadiazole-5,2-diyl))bis(2-(1H-indol-3-yl)acetamide)]",< 100 nM
4,CN(C(=O)Cc1ccccc1)c1nnc(CCCCc2nnc(N(C)C(=O)Cc3ccccc3)s2)s1 [Compound 97],1000 to 10000 nM
5,"COc1cccc(CCC(=O)Nc2nnc(CCCCc3nnc(NC(=O)CCc4cccc(OC)c4)s3)s2)c1 [Compound 53, N,N′-(5,5′-(butane-1,4-diyl)bis(1,3,4-thiadiazole-5,2-diyl))bis(3-(3-methoxyphenyl)propanamide)]",< 100 nM
6,"COc1cccc(CCC(=O)Nc2nnc(CCCCc3nnc(NC(=O)CCc4cccc(OC)c4OC)s3)s2)c1OC [Compound 106, N,N′-(5,5′-(butane-1,4-diyl)bis(1,3,4-thiadiazole-5,2-diyl))bis(3-(2,3-dimethoxyphenyl)propanamide)]",100 to 500 nM
7,"O=C(CCc1cccnc1)Nc1nnc(CCCCc2nnc(NC(=O)CCc3cccnc3)s2)s1 [Compound 54, N,N′-(5,5′-(butane-1,4-diyl)bis(1,3,4-thiadiazole-5,2-diyl))bis(3-(pyridin-3-yl)propanamide)]",500 to 1000 nM
8,"COc1ccc2[nH]cc(CC(=O)Nc3nnc(CCCCc4nnc(NC(=O)Cc5c[nH]c6ccc(OC)cc56)s4)s3)c2c1 [Compound 61, N,N′-(5,5′-(butane-1,4-diyl)bis(1,3,4-thiadiazole-5,2-diyl))bis(2-(5-methoxy-1H-indol-3-yl)acetamide)]",< 100 nM
9,"O=C(Cc1ccc(F)c(F)c1)Nc1nnc(CCCCc2nnc(NC(=O)Cc3ccc(F)c(F)c3)s2)s1 [Compound 83, N,N′-(5,5′-(butane-1,4-diyl)bis(1,3,4-thiadiazole-5,2-diyl))bis(2-(3,4-difluorophenyl)acetamide)]",< 100 nM
10,"O=C(Nc1nnc(CCCCc2nnc(NC(=O)C3CCCCC3)s2)s1)C1CCCCC1 [Compound 90, N,N′-(5,5′-(butane-1,4-diyl)bis(1,3,4-thiadiazole-5,2-diyl))dicyclohexanecarboxamide]",100 to 500 nM
11,"COc1ccccc1CC(=O)Nc1nnc(CCCCc2nnc(NC(=O)Cc3ccccc3OC)s2)s1 [Compound 132, N,N′-(5,5′-(butane-1,4-diyl)bis(1,3,4-thiadiazole-5,2-diyl))bis(2-(2-methoxyphenyl)acetamide)]",< 100 nM
12,O=C(Cc1ccccc1)Nc1nnc(CCSCc2nnc(NC(=O)Cc3ccccc3)s2)s1 [Compound 48],< 100 nM
13,CC(C)c1ccc(OCC(=O)Nc2nnc(CCCCc3nnc(NC(=O)COc4ccc(C(C)C)cc4)s3)s2)cc1 [Compound 79],1000 to 10000 nM
14,O=C(CCN1CCCCC1)Nc1nnc(CCCCc2nnc(NC(=O)CCN3CCCCC3)s2)s1 [Compound 59],1000 to 10000 nM
15,O=C(CCc1cccnc1)Nc1nnc(CCS(=O)(=O)CCc2nnc(NC(=O)CCc3cccnc3)s2)s1 [Compound 35],100 to 500 nM
16,"O=C(Cc1cccnc1)Nc1nnc(C/C=C/Cc2nnc(NC(=O)Cc3cccnc3)s2)s1 [Compound 27, (E)-N,N′-(5,5′-(but-2-ene-1,4-diyl)bis(1,3,4-thiadiazole-5,2-diyl))bis(2-(pyridin-3-yl)acetamide)]",< 100 nM
17,"O=C(Cc1cccnc1)Nc1nnc(CCCc2nnc(NC(=O)Cc3cccnc3)s2)s1 [Compound 26, N,N′-(5,5′-(propane-1,3-diyl)bis(1,3,4-thiadiazole-5,2-diyl))bis(2-(pyridin-3-yl)acetamide)]",100 to 500 nM
